Assay results published in US20090099167A1, “Organic compounds” (Novartis Institutes for Biomedical Research, priority 2004, published 2009).
pIC50: −log10 of the molar value. Where two headings read alike, the source gives them in different places.

Assays:
human Flt-3 = biological target: T1, human Flt-3 (Homo sapiens, UniProt P36888); assay: Flt3 kinase inhibition, GST-Flt-3, 33P incorporation into poly(Glu,Tyr); assay type: biochemical
T1 construct: expressing the amino acid region amino acids 563-993 of the cytoplasmic kinase domain of human Flt-3; made in house; host or cells: Sf9 (baculovirus)
T1 sequence (P36888 563-993): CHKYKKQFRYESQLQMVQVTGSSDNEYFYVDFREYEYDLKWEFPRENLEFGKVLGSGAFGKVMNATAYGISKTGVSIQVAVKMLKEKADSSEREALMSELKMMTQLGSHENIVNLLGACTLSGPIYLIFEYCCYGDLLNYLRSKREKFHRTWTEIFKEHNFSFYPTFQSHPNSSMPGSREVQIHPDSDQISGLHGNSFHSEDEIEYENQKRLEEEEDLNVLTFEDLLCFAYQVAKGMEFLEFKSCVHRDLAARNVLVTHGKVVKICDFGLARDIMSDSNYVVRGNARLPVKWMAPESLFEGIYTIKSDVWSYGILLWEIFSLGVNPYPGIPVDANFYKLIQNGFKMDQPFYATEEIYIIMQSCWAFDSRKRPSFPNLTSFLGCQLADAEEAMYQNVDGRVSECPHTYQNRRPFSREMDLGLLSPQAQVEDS
Method: (§1) The compounds to be tested are then diluted in culture medium (without FCS, with 0.1% bovine serum albumin) and added to the cells. (Controls comprise medium without test compounds). After two hours' incubation at 37° C., recombinant VEGF is added; the final VEGF concentration is 20 ng/ml). After a further five minutes incubation at 37° C., the cells are washed twice with ice-cold PBS (phosphate-buffered saline) and immediately lysed in 100 μl lysis buffer per well. The lysates are then centrifuged to remove the cell nuclei, and the protein concentrations of the supernatants are determined using a commercial protein assay (BIORAD). The lysates can then either be immediately used or, if necessary, stored at −20° C. A sandwich ELISA is carried out to measure the VEGF-R2 phosphorylation: a monoclonal antibody to VEGF-R2 (for example Mab 1495.12.14; ProQinase, Freiburg, Germany) is immobilized on black ELISA plates (OptiPlate™ HTRF-96 from Packard). The plates are then washed and the remaining free protein-binding sites are saturated with 3% TopBlock® (Juro, Cat. # TB232010) in phosphate buffered saline with Tween 20® (polyoxyethylen(20)-sorbitane monolaurate, ICI/Uniquema) (PBST). The cell lysates (20 μg protein per well) are then incubated in these plates overnight at 4° C. together with an antiphosphotyrosine antibody coupled with alkaline phosphatase (PY20:AP from Zymed). […] The luminescence is measured in a Packard Top Count Microplate Scintillation Counter. The difference between the signal of the positive control (stimulated with VEGF) and that of the negative control (not stimulated with VEGF) corresponds to VEGF-induced VEGF-R2 phosphorylation (=100%). The activity of the tested substances is calculated as percent inhibition of VEGF-induced VEGF-R2 phosphorylation, wherein the concentration of substance that induces half the maximum inhibition is defined as the IC50 (inhibitory dose for 50% inhibition). […] Flt3 kinase inhibition is determined as follows: The baculovirus donor vector pFbacG01 (GIBCO) is used to generate a recombinant baculovirus expressing the amino acid region amino acids 563-993 of the cytoplasmic kinase domain of human Flt-3. The coding sequence for the cytoplasmic domain of Flt-3 is amplified by PCR from human c-DNA libraries (Clontech). The amplified DNA fragments and the pFbacG01 vector are made compatible for ligation by digestion with BamH1 and HindIII. Ligation of these DNA fragments results in the baculovirus donor plasmid Flt-3(1.1). The production of the viruses, the expression of proteins in Sf9 cells and the purification of the GST-fused proteins are performed as follows: Production of virus: Transfer vector (pFbacG01-Flt-3) containing the Flt-3 kinase domain is transfected into the DH10Bac cell line (GIBCO) and the transfected cells are plated on selective agar plates. Colonies without insertion of the fusion sequence into the viral genome (carried by the bacteria) are blue. Single white colonies are picked and viral DNA (bacmid) is isolated from the bacteria by standard plasmid purification procedures. Sf9 or Sf21 cells (American Type Culture Collection) are then transfected in flasks with the viral DNA using Cellfectin reagent. Determination of small scale protein expression in Sf9 cells: Virus containing media is collected from the transfected cell culture and used for infection to increase its titre. Virus containing media obtained after two rounds of infection is used for large-scale protein expression. For large-scale protein expression 100 cm^2 round tissue culture plates are seeded with 5×10^7 cells/plate and infected with 1 mL of virus-containing media (approx. 5 MOIs). After 3 days the cells are scraped off the plate and centrifuged at 500 rpm for 5 min. Cell pellets from 10-20, 100 cm^2 plates, are resuspended in 50 mL of ice-cold lysis buffer (25 mMTris-HCl, pH 7.5, 2 mM EDTA, 1% NP-40, 1 mM DTT, 1 mM PMSF). The cells are stirred on ice for 15 min and then centrifuged at 5000 rpms for 20 min. […]

[1] = biological target: T2, human VEGF-R2 receptor (KDR) (Homo sapiens, UniProt P35968); assay: VEGF-induced KDR autophosphorylation in transfected CHO cells, sandwich ELISA; assay type: cell-based; conditions: Table 5; read-out: KDR, IC50 class
T2 construct: expressed in transfected cells; host or cells: CHO cells
Method: as §1

[2] = Table 5, read-out: Flt-3, IC50 class

T2 sequence (P35968 20-1356): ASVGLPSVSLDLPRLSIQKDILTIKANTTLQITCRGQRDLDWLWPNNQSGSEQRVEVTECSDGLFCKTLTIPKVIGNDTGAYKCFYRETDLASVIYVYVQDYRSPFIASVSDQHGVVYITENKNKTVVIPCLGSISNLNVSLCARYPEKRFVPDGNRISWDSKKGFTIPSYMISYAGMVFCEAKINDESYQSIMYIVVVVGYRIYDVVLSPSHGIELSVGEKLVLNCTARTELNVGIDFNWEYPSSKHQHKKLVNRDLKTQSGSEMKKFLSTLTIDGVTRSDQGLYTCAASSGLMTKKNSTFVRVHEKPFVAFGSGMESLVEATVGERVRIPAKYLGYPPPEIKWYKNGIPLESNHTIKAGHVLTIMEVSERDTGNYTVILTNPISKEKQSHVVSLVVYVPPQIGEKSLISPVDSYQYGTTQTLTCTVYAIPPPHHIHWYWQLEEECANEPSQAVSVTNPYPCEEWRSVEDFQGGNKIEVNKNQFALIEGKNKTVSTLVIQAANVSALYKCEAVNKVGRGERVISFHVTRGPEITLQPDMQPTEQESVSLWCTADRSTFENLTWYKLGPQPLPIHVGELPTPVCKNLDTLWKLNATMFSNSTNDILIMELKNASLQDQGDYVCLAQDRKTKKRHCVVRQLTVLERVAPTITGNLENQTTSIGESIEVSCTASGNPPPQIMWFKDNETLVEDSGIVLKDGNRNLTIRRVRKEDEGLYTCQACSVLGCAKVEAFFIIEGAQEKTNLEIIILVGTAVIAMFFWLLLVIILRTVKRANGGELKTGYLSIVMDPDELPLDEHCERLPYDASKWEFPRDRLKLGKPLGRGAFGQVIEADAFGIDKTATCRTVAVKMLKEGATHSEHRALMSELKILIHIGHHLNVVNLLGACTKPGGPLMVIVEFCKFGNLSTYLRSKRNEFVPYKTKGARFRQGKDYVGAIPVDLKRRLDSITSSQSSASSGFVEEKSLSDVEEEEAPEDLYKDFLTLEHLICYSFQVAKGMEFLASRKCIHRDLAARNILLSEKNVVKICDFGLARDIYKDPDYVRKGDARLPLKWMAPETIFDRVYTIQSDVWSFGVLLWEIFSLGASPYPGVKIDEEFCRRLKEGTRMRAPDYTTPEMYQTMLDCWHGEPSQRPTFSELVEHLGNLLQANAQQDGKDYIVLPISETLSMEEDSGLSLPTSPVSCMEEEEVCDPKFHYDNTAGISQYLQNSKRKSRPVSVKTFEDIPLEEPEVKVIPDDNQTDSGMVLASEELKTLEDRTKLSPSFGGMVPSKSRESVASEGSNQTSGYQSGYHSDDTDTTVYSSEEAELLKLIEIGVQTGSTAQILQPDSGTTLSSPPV

## CN1CCN(c2cccc(-c3cnn4c(N)c(Cc5ccccc5)cnc34)c2)CC1 [Example 91, 6-Benzyl-3-[3-(4-methyl-piperazin-1-yl)-phenyl]-pyrazolo[1,5-a]pyrimidin-7-ylamine]
Human Flt-3; [2]
  pIC50: < 5.00
[1]
  pIC50: 5.00 to 6.00

## Cc1nc2c(-c3cccc(N4CCN(CCO)CC4)c3)cnn2c(N)c1-c1ccc(F)c(Cl)c1 [Example 100, 2-(4-{3-[7-Amino-6-(3-chloro-4-fluoro-phenyl)-5-methyl-pyrazolo[1,5-a]pyrimidin-3-yl]-phenyl}-piperazin-1-yl)-ethanol]
Human Flt-3; [2]
  pIC50: < 5.00
[1]
  pIC50: 5.00 to 6.00

## Cc1nc2c(-c3ccc(N4CCN(C)CC4)cc3)cnn2c(N)c1-c1ccc(F)cc1 [Example 79, 6-(4-Fluoro-phenyl)-5-methyl-3-[4-(4-methyl-piperazin-1-yl)-phenyl]-pyrazolo[1,5-a]pyrimidin-7-ylamine]
Human Flt-3; [2]
  pIC50: < 5.00
[1]
  pIC50: 5.00 to 6.00

## Cc1nc2c(-c3cccc(N4C[C@@H](C)O[C@@H](C)C4)c3)cnn2c(N)c1-c1cccc(Cl)c1 [Example 89, 6-(3-Chloro-phenyl)-3-[3-((2R,6S)-2,6-dimethyl-morpholin-4-yl)-phenyl]-5-methyl-pyrazolo[1,5-a]pyrimidin-7-ylamine]
Human Flt-3; [2]
  pIC50: < 5.00
[1]
  pIC50: 5.00 to 6.00

## COc1ccc(-c2cnn3c(N)c(-c4ccc(F)c(Cl)c4)c(C)nc23)cc1OC [Example 94, 6-(3-Chloro-4-fluoro-phenyl)-3-(3,4-dimethoxy-phenyl)-5-methyl-pyrazolo[1,5-a]pyrimidin-7-ylamine]
Human Flt-3; [2]
  pIC50: < 5.00
[1]
  pIC50: < 5.00

## Cc1nc2c(-c3cccc(N4CCN(C)CC4)c3)cnn2c(N)c1-c1ccc(F)c(F)c1 [Example 98, 6-(3,4-Difluoro-phenyl)-5-methyl-3-[3-(4-methyl-piperazin-1-yl)-phenyl]-pyrazolo[1,5-a]pyrimidin-7-ylamine]
Human Flt-3; [2]
  pIC50: < 5.00
[1]
  pIC50: < 5.00

## COc1cc(N2CCN(C)CC2)ccc1-c1cnn2c(N)c(-c3cccc(O)c3)cnc12 [Example 76, 3-{7-Amino-3-[2-methoxy-4-(4-methyl-piperazin-1-yl)-phenyl]-pyrazolo[1,5-a]pyrimidin-6-yl}-phenol]
Human Flt-3; [2]
  pIC50: > 6.00
[1]
  pIC50: > 6.00

## CN1CCN(c2ccc(-c3cnn4c(N)c(-c5ccccc5Cl)cnc34)cc2)CC1 [Example 77, 6-(2-Chloro-phenyl)-3-[4-(4-methyl-piperazin-1-yl)-phenyl]-pyrazolo[1,5-a]pyrimidin-7-ylamine]
Human Flt-3; [2]
  pIC50: > 6.00
[1]
  pIC50: > 6.00

## Cc1nc2c(-c3cccc(N4CCC(N5CCCC5)CC4)c3)cnn2c(N)c1-c1ccc(F)cc1 [Example 103, 6-(4-Fluoro-phenyl)-5-methyl-3-[3-(4-pyrrolidin-1-yl-piperidin-1-yl)-phenyl]-pyrazolo[1,5-a]pyrimidin-7-ylamine]
Human Flt-3; [2]
  pIC50: < 5.00
[1]
  pIC50: < 5.00

## Cc1nc2c(-c3ccc(N4CCN(C)CC4)cc3)cnn2c(N)c1-c1ccc(F)c(Cl)c1 [Example 83, 6-(3-Chloro-4-fluoro-phenyl)-5-methyl-3-[4-(4-methyl-piperazin-1-yl)-phenyl]-pyrazolo[1,5-a]pyrimidin-7-ylamine]
Human Flt-3; [2]
  pIC50: < 5.00
[1]
  pIC50: < 5.00

## Cc1nc2c(-c3cccc(N4CCC(N5CCCC5)CC4)c3)cnn2c(N)c1-c1cccc(Cl)c1 [Example 102, 6-(3-Chloro-phenyl)-5-methyl-3-[3-(4-pyrrolidin-1-yl-piperidin-1-yl)-phenyl]-pyrazolo[1,5-a]pyrimidin-7-ylamine]
Human Flt-3; [2]
  pIC50: < 5.00
[1]
  pIC50: < 5.00

## Cc1nc2c(-c3cccc(N4CCN(C)CC4)c3)cnn2c(N)c1-c1ccc(F)c(Cl)c1 [Example 82, 6-(3-Chloro-4-fluoro-phenyl)-5-methyl-3-[3-(4-methyl-piperazin-1-yl)-phenyl]pyrazolo[1,5-a]pyrimidin-7-ylamine]
Human Flt-3; [2]
  pIC50: < 5.00
[1]
  pIC50: < 5.00

## COc1ccc(-c2cnn3c(N)c(-c4ccc(F)cc4)c(C)nc23)cc1 [Example 96, 6-(4-Fluoro-phenyl)-3-(4-methoxy-phenyl)-5-methyl-pyrazolo[1,5-a]pyrimidin-7-ylamine]
Human Flt-3; [2]
  pIC50: < 5.00
[1]
  pIC50: < 5.00

## Cc1nc2c(-c3cccc([N+]4([O-])CC[N+](C)([O-])CC4)c3)cnn2c(N)c1-c1ccc(F)cc1 (stereo not drawn) [Example 107, 6-(4-Fluoro-phenyl)-5-methyl-3-[3-(4-methyl-1,4-dioxy-piperazin-1-yl)-phenyl]-pyrazolo[1,5-a]pyrimidin-7-ylamine]
Human Flt-3; [2]
  pIC50: < 5.00
[1]
  pIC50: < 5.00

## COc1ccc(-c2cnn3c(N)c(-c4ccc(F)c(F)c4)c(C)nc23)cc1OC [Example 99, 6-(3,4-Difluoro-phenyl)-3-(3,4-dimethoxy-phenyl)-5-methyl-pyrazolo[1,5-a]pyrimidin-7-ylamine]
Human Flt-3; [2]
  pIC50: < 5.00
[1]
  pIC50: < 5.00

## CN1CCN(c2cccc(-c3cnn4c(N)c(-c5ccc(O)cc5)cnc34)c2)CC1 [Example 39, 4-{7-Amino-3-[3-(4-methyl-piperazin-1-yl)-phenyl]-pyrazolo[1,5-a]pyrimidin-6-yl}-phenol]
Human Flt-3; Table 4, read-out: Flt-3, activity (IC50 for kinase inhibition)
  pIC50: > 5.00

## COc1cc(N2CCN(C)CC2)ccc1-c1cnn2c(N)c(-c3cccc(Cl)c3)c(C)nc12 [Example 75, 6-(3-Chloro-phenyl)-3-[2-methoxy-4-(4-methyl-piperazin-1-yl)-phenyl]-5-methyl-pyrazolo[1,5-a]pyrimidin-7-ylamine]
[1]
  pIC50: 5.00 to 6.00

## Cc1nc2c(-c3ccc(N4CCN(C)CC4)cc3)cnn2c(N)c1-c1cccc(Cl)c1 [Example 73, 6-(3-Chloro-phenyl)-5-methyl-3-[4-(4-methyl-piperazin-1-yl)-phenyl]-pyrazolo[1,5-a]pyrimidin-7-ylamine]
Human Flt-3; [2]
  pIC50: < 5.00
[1]
  pIC50: > 6.00

## COc1ccc(-c2cnn3c(N)c(-c4cccc(Cl)c4)c(CF)nc23)cc1OC [Example 92, 6-(3-Chloro-phenyl)-3-(3,4-dimethoxy-phenyl)-5-fluoromethyl-pyrazolo[1,5-a]pyrimidin-7-ylamine]
Human Flt-3; [2]
  pIC50: < 5.00
[1]
  pIC50: 5.00 to 6.00

## Cc1nc2c(-c3cccc(N4CCN(CCO)CC4)c3)cnn2c(N)c1-c1cccc(Cl)c1 [Example 90, 2-(4-{3-[7-Amino-6-(3-chloro-phenyl)-5-methyl-pyrazolo[1,5-a]pyrimidin-3-yl]-phenyl}-piperazin-1-yl)-ethanol]
Human Flt-3; [2]
  pIC50: < 5.00
[1]
  pIC50: 5.00 to 6.00

## CN1CCN(c2cccc(-c3cnn4c(N)c(-c5cccc(Br)c5)cnc34)c2)CC1 [Example 86, 6-(3-Bromo-phenyl)-3-[3-(4-methyl-piperazin-1-yl)-phenyl]-pyrazolo[1,5-a]pyrimidin-7-ylamine]
Human Flt-3; [2]
  pIC50: < 5.00
[1]
  pIC50: > 6.00

## CN1CCN(c2cccc(-c3cnn4c(N)c(Cc5cccc(Br)c5)cnc34)c2)CC1 [Example 85, 6-(3-Bromo-benzyl)-3-[3-(4-methyl-piperazin-1-yl)-phenyl]pyrazolo[1,5-a]pyrimidin-7-ylamine]
Human Flt-3; [2]
  pIC50: < 5.00
[1]
  pIC50: < 5.00
